Results from US11802135B2, “Lysophosphatidic acid derivative” (MITSUBISHI TANABE PHARMA CORPORATION, priority 2021, dated 2023).
Where a name gives a salt, the structure may show the parent alone. Read-outs that look alike come from different tables or passages of the source.

Experiments:
[1] = target: T1, human LPA4 receptor (Homo sapiens, UniProt Q99677); test: LPA4/SRE-luc reporter assay in RH7777 cells stably expressing human LPA4 receptor and SRE-Luc2; format: cell-based; conditions: for EC50: read-out: LPA4/SRE-luc EC50
T1 construct: expressed in transfected cells; host or cells: rat hepatocellular carcinoma cell line RH7777, targeted integration at the rRosa26 site
T1 sequence (Q99677 whole entry): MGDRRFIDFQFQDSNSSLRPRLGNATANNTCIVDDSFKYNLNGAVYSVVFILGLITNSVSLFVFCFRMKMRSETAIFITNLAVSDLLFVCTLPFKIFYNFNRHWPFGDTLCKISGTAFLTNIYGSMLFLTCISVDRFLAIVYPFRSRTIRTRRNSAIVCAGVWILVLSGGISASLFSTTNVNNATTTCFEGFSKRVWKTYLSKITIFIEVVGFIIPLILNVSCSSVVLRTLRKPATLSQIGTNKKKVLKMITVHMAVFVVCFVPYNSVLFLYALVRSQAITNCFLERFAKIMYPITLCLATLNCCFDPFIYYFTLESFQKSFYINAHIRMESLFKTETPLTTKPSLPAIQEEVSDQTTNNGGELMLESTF
Description: (§1) A stably expressing cell line that constantly expresses the human LPA4 receptor and SRE-Luc2 was established by the gene targeting introduction method of the rat hepatocellular carcinoma cell line RH7777 into rRosa26 site. Similarly, stably expressing cell lines for human LPA1 receptor and SRE-Luc2 were also established. Each cell line was seeded on a collagen-coated dish and maintained in culture, and cells were collected with trypsin EDTA and the required number (5×10^3 cells/well) was seeded on a 96-well plate. After culturing overnight at 37° C., LPA (Avanti Polar Lipids, Inc.) or each Example compound diluted with an assay medium added or not added with BSA was added, and the cells were cultured at 37° C. for 6 hr. Thereafter, a luciferase detection reagent (Bright-Glo, Promega) was added, and the chemiluminescence amount was quantified with an Envision (registered trade mark) multi-label counter (PerkinElmer) and used as an index of agonist activity.
(§2) The EC50 value of LPA or each Example compound was calculated using the […] Graph pad Prism for Windows ver.5.02 and ver.7.04. % Emax was expressed as the ratio of the maximum response (Emax) of LPA or each Example compound to the maximum response (Emax) of the positive control compound VPC 31144S (N-{(1S)-2-hydroxy-1-[(phosphonooxy)methyl]ethyl}(9Z) cctadec-9-enamide), with the Emax of the positive control compound VPC 31144S as 100%.

[2] = system: Balb/c nu/nu mouse; test: Gel blood flow ratio in mice transplanted with Matrigel containing basicFGF; format: in vivo; conditions: 3 mg/kg tail vein once per day, day 5 to 7 after transplantation; vs solvent administration group, t-test p<0.01
Description: A 5-week-old male Balb/c nu/nu mouse (CLEA Japan, Inc.) was subcutaneously transplanted with 500 μL of Matrigel (Corning) admixed with recombinant mouse basicFGF (Biobyt Ltd.) to a final concentration of 200 ng/mL. The test compound was dissolved in a 50% aqueous ethanol solution at a concentration of 10 mg/mL to give a stock solution, diluted with phosphate-buffered saline (PBS) immediately before administration, and used for consecutive administration into the tail vein of mouse at a dose of 3 mg/kg once per day from the 5th day to the 7th day of the transplantation. On the 7th day of transplantation, after 4 hours from the administration of the test compound, Genhance750 (PerkinElmer) was administered to the tail vein, and 20 min later under isoflurane anesthesia, whole body fluorescence at 800 nm was imaged using an in vivo analyzer (IVIS Spectrum, PerkinElmer) at an excitation wavelength of 745 nm. The gel blood flow ratio was calculated by dividing the radiance of Matrigel by the radiance of the auricle.

[3] = target: T2, human LPA1 receptor (Homo sapiens, UniProt Q92633); test: LPA1/SRE-luc reporter assay in RH7777 cells stably expressing human LPA1 receptor and SRE-Luc2; format: cell-based; conditions: read-out: LPA1/SRE-luc EC50
T2 construct: expressed in transfected cells; host or cells: rat hepatocellular carcinoma cell line RH7777 (made 'similarly' to the LPA4 line)
T2 sequence (Q92633 whole entry): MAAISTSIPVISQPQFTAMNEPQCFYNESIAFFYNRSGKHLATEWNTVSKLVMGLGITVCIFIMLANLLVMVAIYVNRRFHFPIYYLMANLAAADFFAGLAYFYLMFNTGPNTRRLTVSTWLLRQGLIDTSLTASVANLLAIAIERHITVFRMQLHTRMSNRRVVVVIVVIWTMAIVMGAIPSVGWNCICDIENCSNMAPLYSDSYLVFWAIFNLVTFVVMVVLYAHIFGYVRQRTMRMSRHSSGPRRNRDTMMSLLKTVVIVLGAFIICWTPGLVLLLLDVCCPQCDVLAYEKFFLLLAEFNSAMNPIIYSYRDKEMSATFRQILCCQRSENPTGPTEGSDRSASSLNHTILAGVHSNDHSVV
Description: as §1, §2

[4] = system: mouse lung cancer cell line LLC-1; test: Tumor volume in mice transplanted with LLC-1, combination with paclitaxel; format: in vivo
Description: An 8-week-old female […] mouse (Nippon SLC) was subcutaneously transplanted with 1×10^6 cells/100 μL of mouse lung cancer cell line LLC-1 suspended in D-MEM medium containing 50% Matrigel (Corning). On the 9th day after transplantation of the cell line, 8 mice were grouped such that the tumor volume and body weight were uniform (Day 0). The tumor volume was calculated by measuring the minor axis and the major axis of the tumor with a vernier caliper (minor axis x minor axis x major axis/2). Example compound 16 was intraperitoneally administered every day from Day 0 at a dose of 30 mg/kg. As an existing anticancer drug, paclitaxel (paclitaxel injection, Pfizer) was intraperitoneally administered to mice at a dose of 20 mg/kg twice in total on Day 3 and Day 10. The tumor volume of each group was calculated every other day from Day 0 to Day 15. Phosphate-buffered saline in the same amount as the drug solution was administered to the solvent administration group.

[5] = Evaluation of chemical stability, preserved at 60° C. (sealed) for a week, UPLC; format: physicochemical
Description: About 0.5 mg of each of test sample (lysophosphatidic acid (LPA) and Example compound 16) preserved at 60° C. (sealed) for a week and non-preserved sample (at the start of testing) was weighed, and dissolved in a mixed solution (1 mL) of acetonitrile/water (1:1) to prepare test solutions. Test was performed by the liquid chromatographic method under the following conditions, and individual peak area % was determined. It was measured by Waters ACQUITY UPLC under the following conditions. • Detector: photodiode array (measurement wavelength 220 nm) • Column: Waters ACQUITY BEH C18 (2.1 mm×100 mm, 1.7 μm) • Column temperature: constant temperature around 40° C. • Mobile phase: Solution A; […] ammonium acetate in water (pH 8.5), • Solution B; […] ammonium acetate in acetonitrile/water (17:3) (pH8.5) • Concentration gradient control: B % 2→100% (15 min) • Flow rate: 0.5 mL/min • Injection volume: […] <Experimental Results>

[6] = RH7777, BSA added, Emax of positive control VPC 31144S as 100%, read-out: LPA4/SRE-luc % Emax

Row | SMILES | gel blood flow ratio [2] | EC50 ([1]; BSA added) [µM] | Emax [1, 6] [%] | EC50 ([3]; BSA added) [µM] | also measured
1 | CCCCc1ccc(CCCCCCCCC(=O)N2CC(OP(=O)(O)O)C2)cc1 [Example compound 70, 1-[9-(4-Butylphenyl)nonanoyl]azetidin-3-yl dihydrogen phosphate ammonium salt] | significantly increased | – | – | – | EC50 ([1]; BSA not added): < 0.041 µM; Emax ([1]; RH7777, BSA not added, Emax of positive control VPC 31144S as 100%, read-out: LPA4/SRE-luc % Emax): 239%; EC50 ([3]; BSA not added): > 10 µM
2 | CC(C)(C)c1ccc(CCCCCCCCC(=O)N2CC(OP(=O)(O)O)C2)cc1 [Example compound 84, 1-[9-(4-tert-Butylphenyl)nonanoyl]azetidin-3-yl dihydrogen phosphate] | significantly increased | 0.0041 | 94 | > 3 | –
3 | CCc1ccc(CCCCCCCCC(=O)N2CC(OP(=O)(O)O)C2)cc1 [Example 16, 1-[9-(4-Ethylphenyl)nonanoyl]azetidin-3-yl dihydrogen phosphate] | significantly increased | – | – | – | EC50 ([1]; BSA not added): 0.012 µM; Emax ([1]; RH7777, read-out: LPA4/SRE-luc % Emax): 162%; EC50 ([3]; BSA not added): > 10 µM
4 | CC(=O)O[C@H]1C(=O)[C@@]2(C)[C@H]([C@H](OC(=O)c3ccccc3)[C@]3(O)C[C@H](OC(=O)[C@H](O)[C@@H](NC(=O)c4ccccc4)c4ccccc4)C(C)=C1C3(C)C)[C@]1(OC(C)=O)CO[C@@H]1C[C@@H]2O [paclitaxel, reference compound] | – | – | – | – | tumor volume on Day 15 ([4]; paclitaxel alone 20 mg/kg i.p. Day 3 and Day 10, vs solvent administration group, t-test p<0.05): significantly smaller
5 | CCCCCCCc1ccc(CCCCC(=O)N2CC(OP(=O)(O)O)C2)c(C(F)(F)F)c1 [Example compound 100, 1-{5-[4-Heptyl-2-(trifluoromethyl)phenyl]pentanoyl}azetidin-3-yl dihydrogen phosphate ammonium salt] | – | 0.04 | 108 | > 10 | –
6 | O=C(CCCCc1cccc(OCCCCC2CCCCC2)c1)N1CC(OP(=O)(O)O)C1 [Example compound 88, 1-{5-[3-(4-Cyclohexylbutoxy)phenyl]pentanoyl}azetidinyl dihydrogen phosphate ammonium salt] | – | 0.02 | 152 | > 10 | –
7 | CCc1ccc(CCCCCCCCC(=O)N2CC(OP(=O)(O)O)C2)cc1 [Example compound 16, 1-[9-(4-Ethylphenyl)nonanoyl]azetidin-3-yl dihydrogen phosphate] | – | – | – | – | chemical stability in comparison with LPA ([5]; 60° C. (sealed) for a week): high chemical stability; total ratio (%) of increment of related substances ([5]; 60° C., humidity without artificial control, 1 week): 1.29%; tumor volume on Day 15 ([4]; 30 mg/kg i.p. every day combined with paclitaxel 20 mg/kg, vs paclitaxel alone group, t-test p<0.01): further reduced significantly
8 | O=C(CCCCCCCCc1ccc(-c2ccccc2)cc1)N1CC(OP(=O)(O)O)C1 [Example compound 82, 1-[9-(Biphenyl-4-yl)nonanoyl]azetidin-3-yl dihydrogen phosphate] | significantly increased | 0.0019 | 129 | > 10 | –
9 | O=C(CCCCCCCCc1ccc(C2CC2)cc1)N1CC(OP(=O)(O)O)C1 [Example compound 87, 1-[9-(4-Cyclopropylphenyl)nonanoyl]azetidin-3-yl dihydrogen phosphate ammonium salt] | – | 0.05 | 97 | > 10 | –
